Results on 7 molecules are retold here after ChEMBL document CHEMBL4425197, “Discovery of a new type of scaffold for the creation of novel tyrosinase inhibitors” (Bioorg Med Chem, 2016).

Active and inactive are the calls of the source. The calls are words filed in the database; no cut-off is given here.

Assay [1] addresses T1, Tyrosinase (Agaricus bisporus) (UniProt O42713).
T1 sequence (whole entry): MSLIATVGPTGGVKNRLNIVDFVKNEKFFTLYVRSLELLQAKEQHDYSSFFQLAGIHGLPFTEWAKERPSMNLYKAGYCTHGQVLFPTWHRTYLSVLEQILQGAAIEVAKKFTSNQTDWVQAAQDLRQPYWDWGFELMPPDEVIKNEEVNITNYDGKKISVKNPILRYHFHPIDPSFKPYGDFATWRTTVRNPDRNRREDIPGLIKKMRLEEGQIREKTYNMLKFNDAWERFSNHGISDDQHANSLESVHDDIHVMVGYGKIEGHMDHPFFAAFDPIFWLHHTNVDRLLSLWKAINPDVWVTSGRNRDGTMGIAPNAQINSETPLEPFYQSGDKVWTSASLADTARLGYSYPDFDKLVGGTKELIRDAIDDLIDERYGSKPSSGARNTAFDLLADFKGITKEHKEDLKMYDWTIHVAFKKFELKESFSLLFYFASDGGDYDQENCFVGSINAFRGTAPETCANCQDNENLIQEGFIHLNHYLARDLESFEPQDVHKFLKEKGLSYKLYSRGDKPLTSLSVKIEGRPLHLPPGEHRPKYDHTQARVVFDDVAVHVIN
The assay is described as follows: Non-competitive inhibition of mushroom tyrosinase monophenolase activity using L-tyrosine as substrate at 5 to 10 uM measured every 60 s for 25 times by Lineweaver-Burk plot analysis.

Assay [2] deals with T1, Tyrosinase (Agaricus bisporus). The assay is described as follows: Ratio of IC50 for mushroom tyrosinase diphenolase activity using L-DOPA as substrate to IC50 for mushroom tyrosinase monophenolase activity using L-tyrosine as substrate.
Assay [3] has the same target. The assay is described as follows: Mixed-type inhibition of mushroom tyrosinase diphenolase activity using L-DOPA as substrate at 3 to 30 uM measured every 30 s for 25 times by Lineweaver-Burk plot analysis.
Assay [4] has the same target. The assay is described as follows: Potency index, ratio of IC50 for benzoic acid to IC50 for test compound for inhibition of mushroom tyrosinase monophenolase activity.
Assay [5] deals with T2, Tyrosinase (Agaricus bisporus, UniProt O42713).
T2 sequence (O42713 whole entry): T1 sequence (whole entry)
Put plainly: (§1) Inhibition of mushroom tyrosinase diphenolase activity using L-DOPA as substrate measured every 30 s for 25 times.

Assay [6] has as its target T1, Tyrosinase (Agaricus bisporus). The assay is described as follows: (§2) Inhibition of mushroom tyrosinase monophenolase activity using L-tyrosine as substrate measured every 60 s for 25 times.
In assay [7] the target is T2, Tyrosinase. The assay is described as §2.
For assay [8], the target named is T2, Tyrosinase. The assay is described as follows: Inhibition of mushroom tyrosinase using L-DOPA as substrate preincubated for 5 mins followed by substrate addition measured for 2 mins by spectrophotometric analysis.
Assay [9] deals with T1, Tyrosinase (Agaricus bisporus). Described as §1.
The target of assay [10] is T2, Tyrosinase. Put plainly: Inhibition of mushroom tyrosinase using L-tyrosine as substrate assessed as dopachrome formation preincubated for 10 mins followed by protein addition measured after 20 mins by microplate reader analysis.

On to `O=C(O)c1cccc(-c2ccccc2)c1`, for which the inhibition result in assay [1] and in assay [3] was “Active” each time. The figures for the Ratio IC50 in assay [2] and in assay [4] were 5.21 and 30, respectively. Moreover, the values for the half-maximal inhibitory concentration (IC50) in assay [5] and in assay [7] were 36.3 µM and 6.97 µM, respectively. Also, the inhibition entry in [6] was “Dose-dependent effect”.

For `O=C(O)c1ccc(-c2ccccc2)cc1`, in assay [2], the Ratio IC50 turned out to be 3.42. The half-inhibitory concentration (IC50) came out at 216 µM in assay [5] and 63.2 µM in assay [7]. In addition, the inhibition result in [6] is “Dose-dependent effect”.

With `O=C(O)c1ccccc1-c1ccccc1`, the IC50 in assay [5] and in assay [7] was over 1000 µM throughout.

As to `O=C(O)c1ccccc1` [BENZOIC ACID], the Ratio IC50 in assay [2] came out at 3.66. The values for the IC50 in assay [8], in assay [5] and in assay [7] were 710 µM, 822 µM and 224 µM, respectively.

`CCOC(=O)c1cccc(-c2ccccc2)c1`: the inhibition result in assay [9] and in [6] was “inactive” each time.

In the case of `Nc1ccc(C(=O)O)cc1` [AMINOBENZOIC ACID], the IC50 in [10] was found to be 3.8 µM.

Regarding `COc1ccc(C(=O)O)cc1` [p-ANISIC ACID], the IC50 in assay [10] turned out to be 420 µM.
